The test system of the test is Mycobacterium obuense type strain ATCC 27023. The experiment in a line: Growth of Mycobacterium obuense on Middlebrook 7H11 medium with different Dapsone concentrations.

Entries after “also recorded” stand apart in the source; their conditions may differ.

Experimental: Mycobacterium obuense type strain ATCC 27023 was grown Middlebrook 7H11 medium comprising different concentrations of Dapsone™.

On to `Nc1ccc(S(=O)(=O)c2ccc(N)cc2)cc1` [Dapsone ™, 4,4′-Diaminodiphenyl sulfone], for which the Observed growth is on record as 3 smooth colonies (Experiment 2 part a, 5 μg Dapsone/ml Middlebrook 7H11 medium); “no growth” (Experiment 2 part a, 10 μg Dapsone/ml Middlebrook 7H11 medium); “no growth” (Experiment 2 part a, 20 μg Dapsone/ml Middlebrook 7H11 medium); “no growth” (Experiment 2 part a, 40 μg Dapsone/ml Middlebrook 7H11 medium); “no growth” (Experiment 2 part a, 50 μg Dapsone/ml Middlebrook 7H11 medium); “confluent smooth colonies” (Experiment 2 part b, 3 μg Dapsone/ml Middlebrook 7H11 medium). Besides, the Observed growth result is on record as “small smooth colonies” (Experiment 2 part b, 4 μg Dapsone/ml Middlebrook 7H11 medium); “small smooth colonies” (Experiment 2 part b, 5 μg Dapsone/ml Middlebrook 7H11 medium); “few rough colonies,; also recorded: mostly smooth colonies” (Experiment 2 part c, 5 μg Dapsone/ml Middlebrook 7H11 medium); “few rough colonies,; also recorded: mostly smooth colonies” (Experiment 2 part c, 7.5 μg Dapsone/ml Middlebrook 7H11 medium); “mostly rough colonies” (Experiment 2 part c, 10 μg Dapsone/ml Middlebrook 7H11 medium); “mostly rough colonies” (Experiment 2 part c, 12 μg Dapsone/ml Middlebrook 7H11 medium).

Values taken from patent US8512694B2, “Method of producing rough strains of bacteria and uses thereof” (priority 2005, dated 2013).
